Experimental data published in ChEMBL document CHEMBL1201862, “PubChem BioAssay data set” (2004).
Calls of active or inactive are those of the source. Rule as the data show it: actives have a measured IC50 and inactives only a lower limit.

Biological target: Envelope glycoprotein gp160 (Human immunodeficiency virus 1, UniProt Q6QLK5)
Assay: inhibitors of HIV fusion peptide binding, primary screen, biochemical, uHTS, fluorescence dequenching (AID 1986)

Envelope glycoprotein gp160, sequence (Q6QLK5 whole entry, the tested form may be a part): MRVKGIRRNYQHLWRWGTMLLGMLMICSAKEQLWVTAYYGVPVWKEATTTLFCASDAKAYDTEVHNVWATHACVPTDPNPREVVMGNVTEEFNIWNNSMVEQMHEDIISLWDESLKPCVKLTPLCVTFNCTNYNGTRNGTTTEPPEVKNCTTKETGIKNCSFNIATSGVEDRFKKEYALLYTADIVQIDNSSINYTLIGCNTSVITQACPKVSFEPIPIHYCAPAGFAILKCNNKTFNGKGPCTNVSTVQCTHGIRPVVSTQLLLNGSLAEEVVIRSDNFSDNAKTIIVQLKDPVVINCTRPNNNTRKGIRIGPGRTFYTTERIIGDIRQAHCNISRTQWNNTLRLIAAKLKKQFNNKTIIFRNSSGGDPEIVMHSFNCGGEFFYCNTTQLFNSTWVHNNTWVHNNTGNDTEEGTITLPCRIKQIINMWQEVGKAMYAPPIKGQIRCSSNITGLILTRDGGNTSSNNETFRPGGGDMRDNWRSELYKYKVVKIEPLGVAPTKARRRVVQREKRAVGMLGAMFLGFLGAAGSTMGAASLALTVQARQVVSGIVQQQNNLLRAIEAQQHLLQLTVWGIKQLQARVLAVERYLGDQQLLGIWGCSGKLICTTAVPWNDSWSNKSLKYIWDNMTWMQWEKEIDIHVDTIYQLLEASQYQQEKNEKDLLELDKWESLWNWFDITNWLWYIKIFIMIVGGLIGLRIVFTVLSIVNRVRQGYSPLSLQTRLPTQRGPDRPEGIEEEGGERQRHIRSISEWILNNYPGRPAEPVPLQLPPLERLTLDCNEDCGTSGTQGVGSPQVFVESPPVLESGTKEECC

COc1ccc(OC)c(/C=C2\SC(=S)N(NS(=O)(=O)c3ccc(C)cc3)C2=O)c1
IC50: 21.4 µM (active)

COc1ccc(-c2csc(NC(=O)CSc3nc(C)nc4sc(C(=O)O)c(C)c34)n2)cc1
IC50: 9.37 µM (active)

CC1=C(C#N)C(=O)NC(=O)/C1=C\c1ccc(-c2cc(C)c(C)cc2[N+](=O)[O-])o1
IC50: 21.8 µM (active)
